Experiments:
Type in all cases: cell-based
TYK2 [1] = target: T1, TYK2 (Homo sapiens, UniProt P29597); experiment: TYK2 degradation MSD assay in human PBMC cells; design: endogenous in cells; host or cells: human PBMC; settings: 4 to 24 hours incubation, read-out: TYK2 MSD DC50 rating in human PBMC
Procedure, shortened: (§1)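 TYK2 levels in lysed cells, detected via antibody capture and SULFO-TAG electrochemiluminescence, were compared across a nine-point threefold compound dilution (highest 1 to 10 μM) after 4–24 h culture at 37° C under 5% CO2. Four-parameter nonlinear regression of the dose response yielded DC50.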

TYK2 [2] = target: T1, TYK2; experiment: TYK2 degradation MSD assay in EBV-B cells; design: endogenous in cells; host or cells: EBV-B cells; settings: 4 to 24 hours incubation, read-out: TYK2 MSD DC50 rating in EBV-B
Procedure, shortened: as §1

TYK2 [3] = target: T1, TYK2; experiment: TYK2 degradation MSD assay in OCI-LY10 cells; design: endogenous in cells; host or cells: EBV-B cells; settings: 4 to 24 hours incubation, read-out: TYK2 MSD DC50 rating in OCI-LY10
Procedure, shortened: as §1

T1 sequence (P29597 whole entry): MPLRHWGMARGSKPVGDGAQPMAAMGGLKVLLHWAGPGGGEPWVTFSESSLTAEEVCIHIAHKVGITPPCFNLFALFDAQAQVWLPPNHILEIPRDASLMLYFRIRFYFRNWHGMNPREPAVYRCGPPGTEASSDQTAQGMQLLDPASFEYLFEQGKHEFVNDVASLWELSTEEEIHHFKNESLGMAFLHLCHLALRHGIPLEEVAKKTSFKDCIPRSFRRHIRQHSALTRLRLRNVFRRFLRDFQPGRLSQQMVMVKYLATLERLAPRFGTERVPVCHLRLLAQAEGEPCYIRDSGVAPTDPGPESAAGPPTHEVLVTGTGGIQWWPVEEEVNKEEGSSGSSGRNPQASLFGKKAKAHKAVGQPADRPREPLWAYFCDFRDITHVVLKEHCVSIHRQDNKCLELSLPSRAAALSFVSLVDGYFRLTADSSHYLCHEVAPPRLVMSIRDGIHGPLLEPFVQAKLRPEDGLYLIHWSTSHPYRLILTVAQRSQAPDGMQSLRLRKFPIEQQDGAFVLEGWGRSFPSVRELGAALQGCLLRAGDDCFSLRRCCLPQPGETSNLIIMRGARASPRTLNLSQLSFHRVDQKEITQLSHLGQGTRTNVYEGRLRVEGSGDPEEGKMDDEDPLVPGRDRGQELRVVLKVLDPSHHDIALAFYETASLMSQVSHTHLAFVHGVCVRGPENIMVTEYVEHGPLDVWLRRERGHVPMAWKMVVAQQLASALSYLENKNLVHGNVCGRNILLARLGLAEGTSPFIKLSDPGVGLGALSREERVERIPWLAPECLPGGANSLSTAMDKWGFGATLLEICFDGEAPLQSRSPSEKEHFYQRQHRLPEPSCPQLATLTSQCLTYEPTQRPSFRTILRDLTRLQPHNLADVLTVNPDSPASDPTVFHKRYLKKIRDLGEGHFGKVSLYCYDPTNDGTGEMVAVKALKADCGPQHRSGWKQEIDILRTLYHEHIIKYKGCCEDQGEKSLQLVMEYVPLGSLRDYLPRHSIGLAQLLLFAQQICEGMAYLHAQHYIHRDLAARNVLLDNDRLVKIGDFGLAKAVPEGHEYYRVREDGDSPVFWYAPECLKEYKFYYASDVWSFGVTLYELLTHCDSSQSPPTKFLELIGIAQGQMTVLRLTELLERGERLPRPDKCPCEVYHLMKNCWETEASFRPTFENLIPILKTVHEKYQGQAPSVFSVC

DC50 (TYK2 [1]) [nM]	DC50 (TYK2 [2]) [nM]	DC50 (TYK2 [3]) [nM]	SMILES
> 100	1 to 10	1 to 10	Cn1c(=O)n(C2CCC(=O)NC2=O)c2ccc(-c3ccc(N4CCN(Cc5ccc(-c6cccc(Nc7cc(NC8CC8)n8ncc(C(=O)N[C@@H]9C[C@@H]9F)c8n7)c6)nc5)CC4)cc3)cc21 (stereo partly drawn) [Example K509]
> 100	1 to 10	< 1	CNc1cc(Nc2cccc(-c3ccc(CN4CC5(CCN(c6cccc7c6n(C)c(=O)n7C6CCC(=O)NC6=O)CC5)C4)cn3)c2)nn2c(C(=O)N[C@@H]3C[C@@H]3F)cnc12 (stereo partly drawn) [Example K510]
> 100	< 1	1 to 10	CNC1=CC(Nc2cccc(-c3ccc(CN4CC5(CCN(c6cccc7c(C8CCC(=O)NC8=O)cccc67)CC5)C4)cn3)c2)=NC2C(C(=O)N[C@@H]3C[C@@H]3F)=CN=C12 (stereo partly drawn) [Example K512]
> 100	1 to 10	1 to 10	CNc1cc(Nc2cccc(-c3ccc(CN4CCN(c5ccc(-c6cccc7c6n(C)c(=O)n7C6CCC(=O)NC6=O)cc5)CC4)cn3)c2)nn2c(C(=O)N[C@@H]3C[C@@H]3F)cnc12 (stereo partly drawn) [Example K513]
> 100	> 100	< 1	CNc1cc(Nc2cccn(-c3ccc(CN4CCN(CC5CCN(c6ccc(-c7ccc8c(c7)n(C)c(=O)n8C7CCC(=O)NC7=O)cc6)CC5)CC4)cn3)c2=O)nn2c(C(=O)N[C@@H]3C[C@@H]3F)cnc12 (stereo partly drawn) [Example K514]
> 100	1 to 10	1 to 10	Cn1c(=O)n(C2CCC(=O)NC2=O)c2ccc(-c3ccc(N4CC5(CN(Cc6ccc(-c7cccc(Nc8ccc9ncc(C(=O)NC%10CC%10)n9n8)c7)nc6)C5)C4)cc3)cc21 (stereo not drawn) [Example K515]
> 100	1 to 10	> 100	CNC1=CC(Nc2cccc(-c3ccc(CN4CCN(c5ccc(-c6cccc7c(N8CCC(=O)NC8=O)cncc67)cc5)CC4)cn3)c2)=NN2C1=NCC2C(=O)N[C@@H]1C[C@@H]1F (stereo partly drawn) [Example K516]
> 100	> 100	< 1	CNc1cc(Nc2cccc(-c3ccc(CN4CCC(N5CC(N6CCN(c7cccc8c7n(C)c(=O)n8C7CCC(=O)NC7=O)CC6)C5)CC4)cn3)c2)nn2c(C(=O)N[C@@H]3C[C@@H]3F)cnc12 (stereo partly drawn) [Example K517]
> 100	> 100	< 1	CNc1cc(Nc2cccc(N3CCC(CN4CCN(c5ccc(-c6ccc7c(c6)n(C)c(=O)n7C6CCC(=O)NC6=O)cc5)CC4)CC3)c2)nn2c(C(=O)N[C@@H]3C[C@@H]3F)cnc12 (stereo partly drawn) [Example K518]
> 100	> 100	< 1	CNc1cc(Nc2cccn(-c3ccc(CN4CC5(C4)CN(c4ccc(-c6ccc7c(c6)n(C)c(=O)n7C6CCC(=O)NC6=O)cc4)C5)cn3)c2=O)nn2c(C(=O)N[C@@H]3C[C@@H]3F)cnc12 (stereo partly drawn) [Example K519]
> 100	> 100	< 1	CNc1cc(Nc2cccc(N3CCC(CN4CC5(CCN(c6cccc7c6n(C)c(=O)n7C6CCC(=O)NC6=O)CC5)C4)CC3)c2)nn2c(C(=O)N[C@@H]3C[C@@H]3F)cnc12 (stereo partly drawn) [Example K520]
> 100	> 100	< 1	CNc1cc(Nc2cccc(-c3ccc(CN4CC5(C4)CN(c4ccc(-c6ccc7c(c6)n(C)c(=O)n7C6CCC(=O)NC6=O)cc4)C5)cn3)c2)nn2c(C(=O)N[C@@H]3C[C@@H]3F)cnc12 (stereo partly drawn) [Example K522]
> 100	> 100	1 to 10	CNc1cc(Nc2cccc(-c3ccc(CN4CCN(c5ccc6c(c5)n(C)c(=O)n6C5CCC(=O)NC5=O)CC4)cn3)c2)nn2c(C(=O)N[C@@H]3C[C@@H]3F)cnc12 (stereo partly drawn) [Example K523]
> 100	> 100	> 100	Cn1c(=O)n(C2CCC(=O)NC2=O)c2ccc(N3CCN(C4CN(C5CCN(Cc6ccc(-c7cccc(Nc8ccc9ncc(C(=O)NC%10CC%10)n9n8)c7)nc6)CC5)C4)CC3)cc21 (stereo not drawn) [Example K524]
> 100	> 100	< 1	CNc1cc(N2CCc3c(-c4ccc(CN5CC(C6CCN(C(=O)c7ccc(Cl)c(N8CCC(=O)NC8=O)c7)CC6)C5)cn4)cccc32)nn2c(C(=O)N[C@@H]3C[C@@H]3F)cnc12 [Example K525]
> 100	> 100	1 to 10	CCNC(=O)c1cnc2c(NC)cc(Nc3cccc(-c4ccc(CN5CCN(c6ccc(-c7ccc8c(c7)n(C)c(=O)n8C7CCC(=O)NC7=O)cc6)CC5)cn4)c3OC)nn12 (stereo not drawn) [Example K526]
> 100	> 100	1 to 10	CNC(=O)c1cnc2c(NC)cc(Nc3cccc(-c4ccc(CN5CCN(c6ccc(-c7ccc8c(c7)n(C)c(=O)n8C7CCC(=O)NC7=O)cc6)CC5)cn4)c3OC)nn12 (stereo not drawn) [Example K527]

DC50 (TYK2 [1]) [nM]	DC50 (TYK2 [2]) [nM]	DC50 (TYK2 [3]) [nM]	SMILES
> 100	> 100	1 to 10	CNc1cc(Nc2cccc(-c3ccc(CN4CCN(c5ccc(-c6ccc7c(c6)n(C)c(=O)n7C6CCC(=O)NC6=O)cc5)CC4)cn3)c2OC)nn2c(C(=O)NC(C)C)cnc12 (stereo not drawn) [Example K528]
> 100	> 100	1 to 10	CNc1cc(-c2ccc(-c3ccc(CN4CCN(c5ccc(-c6ccc7c(c6)n(C)c(=O)n7C6CCC(=O)NC6=O)cc5)CC4)cn3)cc2)nn2c(C(=O)N[C@@H]3C[C@@H]3F)cnc12 (stereo partly drawn) [Example K529]
> 100	> 100	> 100	CNc1cc(-c2ccc(C3CCN(CC4CCN(c5ccc(-c6ccc7c(c6)n(C)c(=O)n7C6CCC(=O)NC6=O)cc5)CC4)CC3)cc2)nn2c(C(=O)N[C@@H]3C[C@@H]3F)cnc12 (stereo partly drawn) [Example K530]
> 100	> 100	1 to 10	CNc1cc(Nc2cccnc2OC2CCN(CCN3CCN(c4ccc5c(c4)n(C)c(=O)n5C4CCC(=O)NC4=O)CC3)CC2)nn2c(C(=O)N[C@@H]3C[C@@H]3F)cnc12 (stereo partly drawn) [Example K531]
> 100	> 100	> 100	CNc1cc(-c2cn(C)c3c(-c4ccc(CN5CCN(c6ccc(-c7ccc8c(c7)n(C)c(=O)n8C7CCC(=O)NC7=O)cc6)CC5)cc4)cccc23)nn2c(C(=O)N[C@@H]3C[C@@H]3F)cnc12 (stereo partly drawn) [Example K532]
> 100	> 100	1 to 10	CNc1cc(Nc2cccc(-c3ccc(CN4CCN(c5ccc(-c6ccc7c(c6)n(C)c(=O)n7C6CCC(=O)NC6=O)cc5)CC4)cn3)c2)nn2c(-c3cn(C(C)C)nn3)cnc12 (stereo not drawn) [Example K534]
> 100	> 100	> 100	CCc1nn(-c2cccc(F)c2OC)c2cc(Nc3ccc(CN(C)C4CCN(c5cccc6c5n(C)c(=O)n6C5CCC(=O)NC5=O)CC4)cn3)ncc12 (stereo not drawn) [Example K537]
> 100	> 100	1 to 10	CNc1cc(Nc2cccc(-c3ccc(CN4CCN(c5ccc(-c6ccc7c(c6)n(C)c(=O)n7C6CCC(=O)NC6=O)cc5)CC4)cn3)c2OC)nn2c(C(=O)NC3CC3C)cnc12 (stereo not drawn) [Example K542]
> 100	> 100	> 100	CNc1cc(Oc2ccn(C3CCN(CC4CCN(c5ccc(-c6ccc7c(c6)n(C)c(=O)n7C6CCC(=O)NC6=O)cc5)CC4)CC3)n2)nn2c(C(=O)N[C@@H]3C[C@@H]3F)cnc12 (stereo partly drawn) [Example K549]
> 100	> 100	> 100	CNc1cc(-c2ccc(C3CCN(CC4CCN(c5ccc(-c6ccc7c(c6)n(C)c(=O)n7C6CCC(=O)NC6=O)cc5)CC4)CC3)cc2)c2n3c(cnc13)C(=O)N(C1CC1)C2 (stereo not drawn) [Example K550]
> 100	1 to 10	> 100	CNc1cc(N2CCc3c(N4CCC(CN5CCN(c6ccc(-c7ccc8c(c7)n(C)c(=O)n8C7CCC(=O)NC7=O)cc6)CC5)CC4)cccc32)nn2c(C(=O)N[C@@H]3C[C@@H]3F)cnc12 (stereo partly drawn) [Example K551]
> 100	> 100	> 100	O=C1CCN(c2cc(C(=O)N3CCC4(CC3)CN(Cc3ccc(-c5cccc6c5CCN6c5ccc6ncc(C(=O)NC7CC7)n6n5)nc3)C4)ccc2Cl)C(=O)N1 [Example K554]
> 100	> 100	< 1	Cn1c(=O)n(C2CCC(=O)NC2=O)c2ccc(-c3ccc(N4CCN(Cc5ccc(-c6cccc(Nc7nn8c(C(=O)N[C@@H]9C[C@@H]9F)cnc8c8c7OCCN8)c6)nc5)CC4)cc3)cc21 (stereo partly drawn) [Example K557]
> 100	> 100	> 100	CC#Cc1nn(-c2cccc(F)c2OC)c2cc(Nc3ccc(CN(C)C4CCN(c5cccc6c5n(C)c(=O)n6C5CCC(=O)NC5=O)CC4)cn3)ncc12 (stereo not drawn) [Example K558]
> 100	> 100	1 to 10	CNc1cc(N2CCc3c(-c4ccc(CN5CCC(N6CCN(C(=O)c7ccc(Cl)c(N8CCC(=O)NC8=O)c7)CC6)CC5)cn4)cccc32)nn2c(C(=O)N[C@@H]3C[C@@H]3F)cnc12 [Example K559]
> 100	> 100	> 100	CNc1cc(Nc2cccn(-c3ccc(C(=O)NCCCCc4cncc(N5CCC[C@H](C(=O)Nc6ccc(=O)n(CC(=O)O)c6)C5)c4)cn3)c2=O)nn2c(C(=O)N[C@@H]3C[C@@H]3F)cnc12 [Example K561]
> 100	> 100	< 1	CNc1cc(Nc2cccc(-c3ccc(CN4CCN(c5ccc(-c6ccc7c(c6)n(C)c(=O)n7C6CCC(=O)NC6=O)cc5)CC4)cn3)c2F)nn2c(C(=O)N[C@@H]3C[C@@H]3F)cnc12 (stereo partly drawn) [Example K563]
